Experimental data as given in patent US11046991B2, “Rapid preconcentration of viable bacteria using magnetic ionic liquid for PCR amplification and culture-based diagnostics” (priority 2017, dated 2021).

How the values were obtained:
[1] = tested on: E. coli; assay: MIL-based extraction of viable E. coli, selective culture and colony enumeration; conditions: for visible colonies after back-extraction with LB media and culture on selective agar: aqueous solutions of 1.68×10^5 CFUs mL^−1
Description: For each cell extraction experiment, 2 mL of sterile LB media with 100 μg mL^−1 carbenicillin was inoculated with 0.5 μL of E. coli glycerol stock and incubated overnight at 37° C. and 225 rpm. The overnight culture was centrifuged at 2820 g for 8 min and the supernatant discarded. The cells were then vortexed for 15 s in 2 mL of deionized water and centrifuged once again at 2820 g for 8 min. Following a total of three washes, the cells were re-suspended in 1 mL of deionized water. The concentration of cells within the suspension was initially determined by measuring the optical density of the sample at 600 nm (OD600), where an OD600 equal to 1.000 represents 8×10^8 E. coli cells mL^−1. The bacterial suspension was diluted to an OD600 value of 0.021 (1.68×10^7 cells mL^−1), after which 10-fold serial dilutions were performed to yield the desired sample concentration. Since the sample concentrations were below the detection limit of the spectrophotometer, the final concentration of each sample (in CFUs mL^−1) was obtained using a plate counting method. Briefly, 15 μL of diluted cell suspension were mixed with 985 μL of LB media and vortexed for 3 min. A […] aliquot of the suspension was spread onto a selective LB agar plate with 100 μg mL^−1 carbenicillin and incubated overnight at 37° C. to obtain visible colonies.
(§1) A general schematic for the MIL-based cell extraction procedure is depicted in FIG. 10. In a 4 mL screw cap glass vial, a controlled volume (e.g., 10 μL) of MIL was added to 2 mL of diluted cell suspension and dispersed into microdroplets by vortex agitation for 15-120 s. Following the dispersive extraction, a 0.9 T magnetic field was applied to collect the cell-enriched MIL extraction phase. After the aqueous phase was decanted, the MIL was subjected to a static wash with 2 mL of deionized water to ensure that residual cell suspension was removed. The extracted E. coli was recovered from the MIL solvent by vortexing the MIL in 1 mL of LB media from 30 to 300 s. Following back-extraction, aliquots of the cell-enriched LB media were cultured on selective agar as well as analyzed by PCR.
To detect viable bacteria recovered from the MIL extraction solvent, a culture-based method selective for E. coli transformants was employed. Following MIL-based extraction, a 100 μL aliquot of the LB back-extraction solution was plated on LB agar containing 100 μg mL^−1 carbenicillin and incubated overnight at 37° C. Visible colonies were counted, tabulated, and compared to the colonies obtained for the sample prior to extraction. The enrichment factor (EF) from the MIL-based extraction was calculated by Equation 1, where CMIL is the concentration of CFUs within the MIL extraction phase and CS represents the concentration of CFUs in the bacterial suspension prior to extraction. EF=CMIL/CS Equation 1
To determine if MILs can extract viable E. coli cells, aqueous solutions of 1.68×10^5 CFUs mL^−1 were extracted with each of the seven MILs using an approach that is similar to one depicted in FIG. 10. […] [Co(hfacac)3^−] MILs with the greatest number of colonies obtained from the Ni(II)-based MIL extractions.

[2] = Viscosity, cone and plate viscometer; type: physicochemical; conditions: 23.7° C.
Description: Proton NMR spectra (^1H) were recorded using a Bruker 500 MHz nuclear magnetic resonance spectrometer. Solvent peaks were used as reference values for the reporting of chemical shifts. Elemental analyses were obtained using a Perkin Elmer 2100 Series II CHN/S Analyzer (Waltham, Mass., USA). Mass spectra were obtained using an Agilent 6230 TOF LC/MS (Santa Clara, Calif., USA). Viscosity measurements were obtained using a Wells/Brookfield DV1 cone and plate viscometer using a CPA-51Z cone spindle. Each MIL was dried in a vacuum oven for 48 hours at 50° C. ensuring any water or residual solvents were completely removed from the MILs. Sample volumes of 0.5 mL were used for all MILs at a temperature (23.7° C.).

[3] = tested on: E. coli K12 cells; type: cell-based
Description: Since culture-based methods are contingent upon the isolation of viable bacteria, the detection of E. coli following MIL-based cell extraction is influenced by the cytotoxicity of MILs. To study the effect of MILs on the growth of E. coli, a 1 mL aliquot of LB media was inoculated with 8.0×10^2±0.5×10^2 CFUs mL^−1 and spiked with approximately 10 μL of a MIL. The mixture was agitated by vortex to simulate the recovery procedure after which a 100 μL aliquot of the suspension was plated on selective agar.

[4] = Magnetic susceptibility, SQUID magnetometer; type: physicochemical
Description: The μeff values for each exemplary MIL were determined using a Quantum Design MPMS SQUID magnetometer following procedures similar to those previously reported. (Y. Mudryk, P. Manfrinetti, V. Smetana, J. Liu, M. L. Fornasini, A. Provino, V. K. Pecharsky, G. J. Miller and K. A. Gschneidner, J. Alloys Compd, 2013, 557, 252-260).

[5] = Solubility of MILs in organic solvents (solvent miscibility); type: physicochemical; conditions: S with footnotes b-e: organic solvents and water, MIL to solvent ratio
Text: Owing to their unique solvation capabilities and high thermal stability, ILs have been successfully employed in organic synthesis either as reaction media or catalysts. An evaluation of the hydrophobic MIL solubility in a wide range of organic solvents may provide a fundamental understanding into their solvent properties. This could be instrumental for designing MIL-based reaction media, where the MIL can be selectively separated from the reaction products using an external magnetic field. […] The transition-metal based […] fully miscible in all of the organic solvents except DMSO. […] However, as the polarity value of the solvent drops below 0.117, the transition-metal based MILs show decreased solubilities at a 10% (v/v) MIL to solvent ratio. […] The solubility of these MILs in many different organic solvents adds to their versatility and use in numerous applications.

[6] = 1 second vial inversion (viscosity comparison); type: physicochemical; conditions: 1 second inversion of each MIL
Description: FIG. 2 compares the viscosities of [P66614^+]2[MnCl4^2−], [P66614^+][Ni(hfacac)3^−], and [P66614^+][Nd(hfacac)4^−] by performing a 1 second inversion of each MIL.

[7] = tested on: E. coli; assay: PCR amplification of LB back-extraction solution after MIL-based extraction
Description: as §1
Following the recovery of E. coli cells from the MIL extraction phase, an aliquot of the LB back-extraction solution was analyzed by PCR. […] The thermal protocol used for amplification of the MTAP gene was as follows: 5 min initial denaturation at 95° C. followed by 30 cycles of 30 s denaturation at 95° C., 45 s annealing at 54° C., and elongation for 45 s at 72° C.
After thermal cycling, the PCR products were mixed with 10 μL of bromophenol blue tracking dye solution (30% glycerol v/v) and loaded on a 1% agarose gel stained with SYBR Safe DNA gel stain. The PCR amplicon was subjected to electrophoresis at approximately 4 V cm^−1 and subsequently visualized using a transilluminator.
To improve detection limits, cells were recovered from the MIL phase using […] and a 1 μL aliquot of LB media was analyzed by PCR amplification. […] MILs as extraction media.
MIL. […] 1999; 37:2479-82). It should be noted that PCR assays are unable to distinguish between live and dead cells and, therefore, are complementary to microbiological culture for the determination of viable cells in a sample.

[8] = tested on: E. coli; assay: MIL-based extraction of viable E. coli, selective culture and colony enumeration; conditions: extraction time 30 s to 300 s
[9] = tested on: E. coli; assay: Direct PCR amplification of cell-enriched MIL phase; conditions: 0.5 μL cell-enriched MIL phase directly in PCR mixture
Description: Nucleic acid-based methods (e.g., PCR) have become increasingly popular for the detection of pathogens in food, environmental, and clinical samples to increase sample throughput and achieve lower detection limits. […] [Co(hfacac)3^−] MIL under optimized conditions. After extraction, 0.5 μL of the cell-enriched MIL phase was directly transferred into the PCR reagent mixture and heated at 95° C. for 5 min to induce cell lysis and the release of nucleic acids into solution. […] While the direct PCR detection modality provided a rapid assay for the detection of E. coli, the method was only suitable for the detection of relatively large quantities of cells (approximately 10^7 CFUs mL^−1) in aqueous samples likely due to inhibition caused by the MIL.

**Q.** For `CCCCCCCCCCCCCC[P+](CCCCCC)(CCCCCC)CCCCCC` [compound 1], which “Viable Bacteria” value ([1]; extraction of E. coli from aqueous samples, 1.68×10^5 CFUs mL^−1) is on record?
**A.** Its value is “No”.

**Q.** What about the viscosity [2] of the same molecule?
**A.** The viscosity was 575.8 cP.

**Q.** And the “Cytotoxicity to E. coli” value [3]?
**A.** Its value is “Yes”.

**Q.** What about the “μeff, effective magnetic moment” value ([4]; from magnetic susceptibility data, SQUID) of the same molecule?
**A.** Its value is 4.3 μB.

**Q.** What about the Solubility [5] of the same molecule?
**A.** The Solubility was “S^b,c,e”.

**Q.** Which results are given for `CCCCCCCCCCCCCC[P+](CCCCCC)(CCCCCC)CCCCCC.O=C(C=C([O-])C(F)(F)F)C(F)(F)F.O=C(C=C([O-])C(F)(F)F)C(F)(F)F.O=C(C=C([O-])C(F)(F)F)C(F)(F)F.[Ni+2]` [MIL 3, [P66614^+] tris(hexafluoroacetylaceto)nickelate(II)]?
**A.** change in EF with SOC media as back-extraction solution ([1]; 120 s back-extraction): no change in the EF was observed; enrichment factor (EF) ([1]; 120 s back-extraction in LB media, 30 s extraction): 15.4±0.8; enrichment factor (EF) ([1]; MIL volume of 5 μL, cell suspension at 1.68×10^4 CFUs mL^−1): 44.6±5.2; visible colonies after back-extraction with LB media and culture on selective agar [1]: visible colonies were observed; colonies with deionized water or 10 mM Tris-HCl (pH 8) as back-extraction solution ([1]; culture on selective agar): no detectable colonies; lowest E. coli concentration detected in aqueous solution ([1]; optimized conditions, viable cells, culture on selective agar): 1.68×10^4 CFUs mL^−1; viscosity [2]: 927 cP; influence on the growth of E. coli ([3]; LB media with 8.0×10^2 CFUs mL^−1, approximately 10 μL of MIL, compared to unexposed standard): little to no influence on the growth of E. coli; μeff ([4]; at lower temperatures): 2.8 μB; movement down the vial [6]: flow easily toward the bottom of the vial; amplicon after extraction of cell filtrate (cell-free DNA) [7]: no amplicon was detected; E. coli concentration at which bacterial pDNA was detected by PCR ([7]; cell recovery in LB media prior to PCR, 2 mL sample): 1.68×10^4 CFUs mL^−1; enrichment factor (EF) [8]: approximately 15

**Q.** Which results are given for `CCCCCCCCCCCCCC[P+](CCCCCC)(CCCCCC)CCCCCC.O=C(C=C([O-])C(F)(F)F)C(F)(F)F.O=C(C=C([O-])C(F)(F)F)C(F)(F)F.O=C(C=C([O-])C(F)(F)F)C(F)(F)F.[Co+2]` [[P66614^+] [Co(hfacac)3^−]]?
**A.** visible colonies after back-extraction with LB media and culture on selective agar [1]: visible colonies were observed; quantity of cells detectable by direct PCR [9]: approximately 10^7 CFUs mL^−1
